Assay [1] deals with CD69 production by B lymphocytes in human whole blood activated with anti-human IgM. Kind of assay: CD69 Whole Blood Assay. The assay is classed as cell-based. As to conditions: Lymphocyte, anti-IgM stimulated, CD69 positive of CD20 positive cells. The text has this:
There is good evidence that B-cells play a key role in the pathogenesis of autoimmune and/or inflammatory disease. Protein-based therapeutics that deplete B cells such as Rituxan are effective against autoantibody-driven inflammatory diseases such as rheumatoid arthritis (Rastetter et al. (2004) Annu Rev Med 55:477). CD69 is the early activation marker in leukocytes including T cells, thymocytes, B cells, NK cells, neutrophils, and eosinophils. The CD69 human whole blood assay (Example 903) determines the ability of compounds to inhibit the production of CD69 by B lymphocytes in human whole blood activated by crosslinking surface IgM with goat F(ab′)2 anti-human IgM.
Human blood is obtained from healthy volunteers, with the following restrictions: 1 week drug-free, non-smokers. Blood (approximately 20 mls to test 8 compounds) is collected by venipuncture into Vacutainer tubes with sodium heparin.
Solutions of Formula I compounds at 1000 or 2000 μM in PBS (20×), are diluted by three-fold serial dilutions in 10% DMSO in PBS for a nine point dose-response curve. An aliquot of 5.5 μl of each compound is added in duplicate to a 2 ml 96-well plate; 5.5 μl of 10% DMSO in PBS is added as control and no-stimulus wells. Human whole blood—HWB (100 μl) is added to each well. After mixing the plates are incubated at 37° C., 5% CO2, 100% humidity for 30 minutes. Goat F(ab′)2 anti-human IgM (10 μl of a 500 μg/ml solution, 50 μg/ml final) is added to each well (except the no-stimulus wells) with mixing and the plates are incubated for an additional 20 hours. At the end of the 20 hour incubation, samples are incubated with fluorescent labeled antibodies for 30 minutes, at 37° C., 5% CO2, 100% humidity. Include induced control, unstained and single stains for compensation adjustments and initial voltage settings. Samples are then lysed with Pharmingen Lyse according to the manufacturer's instructions. Samples are then transferred to a 96 well plate suitable to be run on the AMS 96 well system on the BD Calibur FACs machine. Data acquired and Mean Fluorescence Intensity values were obtained using Cell Quest Software. Results are initially analyzed by FACS analysis software (Flow Jo).

The target in a further assay is p110 alpha (Homo sapiens (Human), UniProt P42336). Kind of assay: PI3K isoform inhibition assay, p110 alpha (for alpha/delta selectivity). The conditions noted are these: ratio of biochemical IC50 values. The procedure, abridged:
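Fluorescence polarization displacement of a fluorescent PIP3 probe from GRP-1 detector by PI3K-formed PIP3; p110α/p85α at 40 ng/mL with 10 μM PIP2 substrate.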

A further assay concerns the target p110 delta (Homo sapiens (Human), UniProt O00329). The assay can be described thus: PI3K isoform inhibition assay, p110 delta (fluorescence polarization displacement). The assay is classed as biochemical.

Data on one molecule can be found in patent US9090628B2, “Benzoxazepin compounds selective for PI3K P110 delta and methods of use” (GENENTECH, INC., priority 2011, dated 2015).

SMILES strings stand for the structures.

Sequence of p110 delta (O00329 whole entry, canonical isoform): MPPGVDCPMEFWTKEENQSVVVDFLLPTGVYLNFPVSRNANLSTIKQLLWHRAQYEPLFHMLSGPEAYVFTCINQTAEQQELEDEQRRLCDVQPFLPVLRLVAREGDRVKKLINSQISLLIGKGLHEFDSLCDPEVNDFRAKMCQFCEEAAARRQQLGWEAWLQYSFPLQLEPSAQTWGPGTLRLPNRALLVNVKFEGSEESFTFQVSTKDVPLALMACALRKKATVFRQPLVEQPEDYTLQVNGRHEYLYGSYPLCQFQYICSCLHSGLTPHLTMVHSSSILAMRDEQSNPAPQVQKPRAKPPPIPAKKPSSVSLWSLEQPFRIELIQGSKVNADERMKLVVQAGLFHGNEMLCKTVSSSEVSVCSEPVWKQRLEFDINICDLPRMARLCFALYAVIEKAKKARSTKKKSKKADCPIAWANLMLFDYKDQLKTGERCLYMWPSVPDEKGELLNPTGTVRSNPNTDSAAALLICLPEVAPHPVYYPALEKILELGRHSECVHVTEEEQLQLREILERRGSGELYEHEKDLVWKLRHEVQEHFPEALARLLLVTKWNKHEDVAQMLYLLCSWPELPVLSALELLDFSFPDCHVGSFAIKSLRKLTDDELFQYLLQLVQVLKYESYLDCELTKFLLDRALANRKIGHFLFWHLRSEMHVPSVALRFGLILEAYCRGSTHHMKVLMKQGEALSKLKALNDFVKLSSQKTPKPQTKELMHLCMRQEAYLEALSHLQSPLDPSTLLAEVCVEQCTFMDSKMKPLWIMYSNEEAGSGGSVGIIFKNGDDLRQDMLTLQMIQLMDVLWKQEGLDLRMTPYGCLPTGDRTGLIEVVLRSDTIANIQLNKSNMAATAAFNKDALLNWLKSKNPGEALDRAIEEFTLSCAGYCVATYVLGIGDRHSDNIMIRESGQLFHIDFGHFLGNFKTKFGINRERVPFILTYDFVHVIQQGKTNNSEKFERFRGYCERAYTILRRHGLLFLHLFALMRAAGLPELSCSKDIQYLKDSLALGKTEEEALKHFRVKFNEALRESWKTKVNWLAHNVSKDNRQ
Sequence of p110 delta (P27986 whole entry partner, canonical isoform): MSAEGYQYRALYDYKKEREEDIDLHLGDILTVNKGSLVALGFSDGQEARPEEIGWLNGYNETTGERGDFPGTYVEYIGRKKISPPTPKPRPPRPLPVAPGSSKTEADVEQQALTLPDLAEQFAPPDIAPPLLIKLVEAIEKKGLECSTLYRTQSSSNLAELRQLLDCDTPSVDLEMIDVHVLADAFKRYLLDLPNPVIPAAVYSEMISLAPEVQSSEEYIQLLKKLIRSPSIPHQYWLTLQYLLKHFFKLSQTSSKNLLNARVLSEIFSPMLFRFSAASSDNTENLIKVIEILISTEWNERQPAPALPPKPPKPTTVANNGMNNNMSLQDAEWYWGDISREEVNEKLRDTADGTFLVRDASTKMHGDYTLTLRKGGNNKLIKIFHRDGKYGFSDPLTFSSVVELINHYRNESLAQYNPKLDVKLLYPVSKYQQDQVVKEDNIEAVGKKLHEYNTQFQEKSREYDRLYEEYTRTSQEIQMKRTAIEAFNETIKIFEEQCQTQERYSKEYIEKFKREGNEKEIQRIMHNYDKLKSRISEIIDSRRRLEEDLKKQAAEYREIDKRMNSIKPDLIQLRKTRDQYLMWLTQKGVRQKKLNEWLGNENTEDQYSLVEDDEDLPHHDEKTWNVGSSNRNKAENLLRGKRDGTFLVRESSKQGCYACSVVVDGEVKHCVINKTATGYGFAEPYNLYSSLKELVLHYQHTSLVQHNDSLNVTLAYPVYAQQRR
Sequence of p110 alpha (P42336 whole entry, canonical isoform): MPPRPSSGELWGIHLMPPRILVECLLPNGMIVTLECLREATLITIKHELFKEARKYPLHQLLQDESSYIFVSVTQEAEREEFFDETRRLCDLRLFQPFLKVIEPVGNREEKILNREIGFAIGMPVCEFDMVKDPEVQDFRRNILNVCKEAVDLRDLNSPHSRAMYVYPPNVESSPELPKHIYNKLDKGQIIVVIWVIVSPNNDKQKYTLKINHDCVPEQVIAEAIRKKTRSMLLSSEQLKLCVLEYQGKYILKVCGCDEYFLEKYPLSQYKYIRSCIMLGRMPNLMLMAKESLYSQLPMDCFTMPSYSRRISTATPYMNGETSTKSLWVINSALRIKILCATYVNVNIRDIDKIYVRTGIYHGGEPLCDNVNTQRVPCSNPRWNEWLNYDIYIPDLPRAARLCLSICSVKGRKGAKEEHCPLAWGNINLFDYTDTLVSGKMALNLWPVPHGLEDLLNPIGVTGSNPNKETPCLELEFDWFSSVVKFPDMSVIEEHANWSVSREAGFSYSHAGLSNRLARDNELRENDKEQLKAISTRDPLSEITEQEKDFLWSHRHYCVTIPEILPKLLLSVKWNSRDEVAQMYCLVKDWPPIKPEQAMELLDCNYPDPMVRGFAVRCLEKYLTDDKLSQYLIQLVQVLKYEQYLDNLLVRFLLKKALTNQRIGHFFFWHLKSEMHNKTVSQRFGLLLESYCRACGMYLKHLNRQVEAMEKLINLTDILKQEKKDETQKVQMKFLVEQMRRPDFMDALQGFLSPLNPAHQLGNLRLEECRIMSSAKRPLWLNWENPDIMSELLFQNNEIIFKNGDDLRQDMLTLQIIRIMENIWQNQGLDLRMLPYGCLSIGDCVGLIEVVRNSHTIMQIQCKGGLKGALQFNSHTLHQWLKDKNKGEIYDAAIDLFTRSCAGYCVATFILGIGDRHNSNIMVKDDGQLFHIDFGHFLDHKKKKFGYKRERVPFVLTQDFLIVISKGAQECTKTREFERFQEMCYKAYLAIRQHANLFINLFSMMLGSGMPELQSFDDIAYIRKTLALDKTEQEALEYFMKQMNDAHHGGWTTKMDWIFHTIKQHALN
Sequence of p110 alpha (P27986 whole entry partner, canonical isoform): as the sequence (P27986 whole entry partner, canonical isoform) above

Usually IC50 stands for the concentration needed to halve the response being measured. A higher IC50 goes with weaker potency. Regarding `CC(Oc1ccc2c(c1)OCCn1cc(-c3ncnn3C(C)C)nc1-2)C1CCN(C(C)C)CC1` (stereo not drawn) [Example 143, 2-(1-isopropyl-1H-1,2,4-triazol-5-yl)-9-(1-(1-isopropylpiperidin-4-yl)ethoxy)-5,6-dihydrobenzo[f]imidazo[1,2-d][1,4]oxazepine], the values for the IC50 (in assay [1]; at p110 delta) were 58.2 nM and 0.442 nM, respectively. In addition, the “IC50 p110 alpha/IC50 p110 delta” value at p110 alpha is given as 14.4.
